Reference: patent publication US8674064B2, “Immunogenic compositions against human progastrin peptides” (Onkologix Ltd, priority 2010, dated 2014)
Ends that are not written are not given here.

How the values were obtained:
huG17 [1] = experiment: ELISA antibody responses in mice after immunization with peptide-carrier conjugates; assay type: in vivo; details: three immunizations, FIG. 1
Protocol: FIG. 1 depicts antibody responses in mice as measured by ELISA and are in response to three immunizations with immunogens comprising each of the conjugates hG18-TT, hG18-DT, hG21-TT and hG21-DT (A, B, C and D, respectively).
(§1) The conjugate may be characterized as to immunomimic peptide content by a number of methods known to those skilled in the art including weight gain, amino acid analysis, etc. Conjugates of peptides G18 and G21 to TT produced by these methods were determined by amino acid analysis to have 10-30 moles of peptide per 104-106 MW of TT and all were considered suitable as immunogens for immunization of test animals. Similarly DT conjugates of G18 and G21, were prepared in the same manner to determine ELISA titers using huG17 as the substrate for assay of antibody binding.
The inventors constructed conjugates comprising each of the G18 and G21 peptides listed in Example 1 linked to TT and DT, as described in Examples 1 and 2. They then immunized six mice with the peptide G18 immunogen (FIGS. 1A, B) and six mice with the peptide G21 immunogen (FIGS. 1C, D).

huG17 [2] = experiment: ELISA antibody responses in rabbits after immunization with peptide-carrier conjugates; assay type: in vivo; details: one administration, FIG. 2
Protocol: FIG. 2 depicts antibody responses in rabbits, as measured by ELISA, with one administration of a conjugate constructed with peptide 1 (hG18-TT) and peptide 2 (hG21-TT) of Examples 1 and Example 2 below, per A and B, respectively.
as §1
The inventors constructed conjugates comprising each of the G18 and G21 peptides, supra, linked to TT and DT as described in Examples 1 and 2. They then immunized four rabbits with the G18 immunogen (FIG. 2A) and four rabbits with the G21 immunogen (FIG. 2B).

[3] = tested on: human gastric cancer cells (BCG-823); details: in vivo

Cys-pro-Pro-Pro-Pro-Ser-Ser-Gly-Trp-Met-Asp-nPhe-Gly-Arg-Arg-Ser-Ala-Glu-Asp-Glu-Asn (CPPPPSSGWMDFGRRSAEDEN; not fully specified (residues 2, 12); printed as Cys-pro-Pro-Pro-Pro-Ser-Ser-Gly-Trp-Met-Asp-nPhe-Gly-Arg-Arg-Ser-Ala-Glu-Asp-Glu-Asn) [Peptide 1]
effective: potency, eliciting of antibody and duration of the antibody responses induced (ELISA) (huG17 [1]) | potency, eliciting of antibody and duration of the antibody responses induced (ELISA) (huG17 [2]) | antibody responses effective in the presence of conventional gastric cancer chemotherapies [3] | inhibiting the growth of human gastric cancer cells [3]

pGlu-Gly-Pro-Trp-isoVal-Glu-Glu-Glu-Glu-Glu-Ala-Ser-Ser-Pro-Pro-Pro-pro-Cys (EGPWVEEEEEASSPPPPC; not fully specified (residues 1, 5, 17); printed as pGlu-Gly-Pro-Trp-isoVal-Glu-Glu-Glu-Glu-Glu-Ala-Ser-Ser-Pro-Pro-Pro-pro-Cys) [Peptide 2]
effective: potency, eliciting of antibody and duration of the antibody responses induced (ELISA) (huG17 [1]) | potency, eliciting of antibody and duration of the antibody responses induced (ELISA) (huG17 [2]) | antibody responses effective in the presence of conventional gastric cancer chemotherapies [3] | inhibiting the growth of human gastric cancer cells [3]
